Measured values published in patent US12258316B2, “Biphenyl compounds useful as muscarinic receptor antagonists” (THERAVANCE BIOPHARMA R&D IP, LLC, priority 2004, dated 2025).

What was measured:
[1] = test system: ACh-induced bronchoconstriction; assay: Duration of bronchoprotection in guinea pig model of acetylcholine-induced bronchoconstriction; format: in vivo; settings: inhalation, 1.5 hours post-dose
Description: Determination of Duration of Bronchoprotection in Guinea Pig Model of Acetylcholine-Induced Bronchoconstriction
Groups of six male guinea pigs (Duncan-Hartley (HsdPoc:DH) Harlan, Madison, WI) weighing between 250 and 350 g were individually identified by cage cards. Throughout the study animals were allowed access to food and water ad libitum.
Test compounds were administered via inhalation over 10 minutes in a whole-body exposure dosing chamber (R&S Molds, San Carlos, CA). The dosing chambers were arranged so that an aerosol was simultaneously delivered to 6 individual chambers from a central manifold. Guinea pigs were exposed to an aerosol of a test compound or vehicle (WFI). […] This was measured gravimetrically by comparing pre- and post-nebulization weights of the filled nebulizer.
The bronchoprotective effects of test compounds administered via inhalation were evaluated using whole body plethysmography at 1.5, 24, 48 and 72 hours post-dose.
Forty-five minutes prior to the start of the pulmonary evaluation, each guinea pig was anesthetized with an intramuscular injection of ketamine (43.75 mg/kg), xylazine (3.50 mg/kg) and acepromazine (1.05 mg/kg). […] The depth of anesthesia was monitored and adjusted if the animal responded to pinching of its paw or if the respiration rate was greater than 100 breaths/minute. […]

[2] = molecular target: T1, hM3 receptor (Homo sapiens, UniProt P20309); assay: Blockade of agonist-mediated calcium release via FLIPR assay; format: cell-based; settings: CHO cells stably expressing the hM3 receptor, oxotremorine at EC90
T1 construct: expressed in transfected cells; host or cells: CHO cells
Excerpt: C. Blockade of Agonist-Mediated Calcium Release via FLIPR Assays
Muscarinic receptor subtypes (M1, M3 and M5 receptors), which couple to Gq proteins, activate the phospholipase C (PLC) pathway upon agonist binding to the receptor. As a result, activated PLC hydrolyzes phosphatyl inositol diphosphate (PIP2) to diacylglycerol (DAG) and phosphatidyl-1,4,5-triphosphate (IP3), which in turn generates calcium release from intracellular stores, i.e., endoplasmic and sarcoplasmic reticulum. […] This fluorescence event is measured in real time by the FLIPR, which detects the change in fluorescence from a monolayer of cells cloned with human M1 and M3, and chimpanzee M5 receptors. Antagonist potency can be determined by the ability of antagonists to inhibit agonist-mediated increases in intracellular calcium. […]
To determine antagonist potency, the dose-dependent stimulation of intracellular Ca^2+ release for oxotremorine is first determined so that antagonist potency can later be measured against oxotremorine stimulation at an EC90 concentration. […]
The parameters used for the FLIPR are: exposure length of 0.4 seconds, laser strength of 0.5 watts, excitation wavelength of 488 nm, and emission wavelength of 550 nm. Baseline is determined by measuring the change in fluorescence for 10 seconds prior to addition of agonist. […]

T1 sequence (P20309 whole entry): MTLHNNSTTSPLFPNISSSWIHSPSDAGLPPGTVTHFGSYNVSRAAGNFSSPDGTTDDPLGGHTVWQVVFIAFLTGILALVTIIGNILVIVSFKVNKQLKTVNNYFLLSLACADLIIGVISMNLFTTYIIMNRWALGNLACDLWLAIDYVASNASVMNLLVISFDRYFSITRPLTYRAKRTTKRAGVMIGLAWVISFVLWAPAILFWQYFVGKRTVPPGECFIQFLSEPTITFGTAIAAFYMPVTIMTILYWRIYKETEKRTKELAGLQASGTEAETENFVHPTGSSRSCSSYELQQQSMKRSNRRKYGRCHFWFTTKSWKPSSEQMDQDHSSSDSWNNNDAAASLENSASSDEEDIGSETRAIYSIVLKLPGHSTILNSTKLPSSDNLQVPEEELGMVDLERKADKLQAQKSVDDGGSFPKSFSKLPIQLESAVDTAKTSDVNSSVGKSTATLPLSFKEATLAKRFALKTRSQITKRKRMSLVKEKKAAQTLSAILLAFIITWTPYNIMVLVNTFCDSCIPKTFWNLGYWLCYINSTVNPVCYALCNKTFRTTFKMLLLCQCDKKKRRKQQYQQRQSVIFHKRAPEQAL

Ki [2]: < 5 nM
SMILES: CN(CCN1CCC(OC(=O)Nc2ccccc2-c2ccccc2)CC1)C(=O)c1ccc(CN2CCC(C(N)=O)CC2)cc1 [Example 1, Biphenyl-2-ylcarbamic Acid 1-(2-{[4-(4-Carbamoylpiperidin-1-ylmethyl)benzoyl]methylamino}ethyl)piperidin-4-yl Ester]
PD2(50) for ACh-induced bronchoconstriction [1]: less than 200 μg/mL
